Measured values reported in patent US20060251714A1, “Pharmaceutical formulations of amyloid inhibiting compounds” (priority 2005, published 2006).

Experiment: Gastrointestinal tolerability of capsules (solid dosage form)
Type: in vivo
Conditions: solid dosage form (capsules, Table 2)
Protocol: Furthermore, the non-hygroscopic nature of the acid form makes it desirable as active pharmaceutical ingredient. To further protect against any possible gastrointestinal intolerance that could result from the acid form, the tablets are enteric-coated and a modified-release agent is added to control any rapid release of the drug in the stomach and the intestine, respectively.

NCCCS(=O)(=O)[O-].[Na+] [3-amino-1-propanesulfonic acid sodium salt]
gastrointestinal symptoms (i.e. nausea and vomiting): associated with gastrointestinal symptoms
